The record followed here is PMC11565046, “Rational design of 2H-chromene-based antiphytovirals that inhibit virion assembly by outcompeting virus capsid-RNA interactions” (iScience, 2024).

One series deals with PVY CP^wt (Potato virus Y, UniProt A0A650FPI8). Description: MST assay for affinity with PVY CP^wt. It counts as binding. The text has this:
Microscale thermophoresis (MST) serves as a potent technique for quantifying the strength of interactions occurring between small molecules and their respective ligands.[19]^,[20] The binding strength between specific target drugs and PVY CP^wt was investigated in vitro using MST, as depicted in Figures 5G and S3. This experimental approach aimed to acquire insights into how target compounds exert their influences against PVY. […] Similarly, the affinity of target compounds for interacting with PVY CP^S125A was tested.
The PVY CP^wt gene, the wild-type variant of the Potato Virus Y coat protein, was cloned into the pET-32a (+) prokaryotic expression vector. This recombinant vector was then thermally transformed into BL21 (DE3) bacterial host cells for subsequent protein expression. The strains above were cultivated on a liquid Luria-Bertani medium (180 rpm, 37°C). To initiate the expression of PVY CP, isopropyl β-D-1-thiogalactopyranoside (IPTG) was added to the culture medium at a concentration of […] when the optical density at 600 nm (OD600) reached a range between 0.6 and 0.8. This step triggered the production of the PVY CP protein. The induction process was maintained for 10 h (180 rpm, 16°C). The 6 × -His-S-tagged PVY CP^wt were purified using nickel-nitriloacetic acid by high-performance column affinity chromatography. Subsequently, enterokinase was employed to digest the proteins, and the desired target proteins were isolated using His-tag purification resin. Ultimately, the proteins were identified through the employment of a 12% sodium dodecyl sulfate-polyacrylamide gel electrophoresis method. The pET-32a (+) plasmid containing the PVY CP^wt gene was used as a template. […] The mutant protein was purified using the method for the purification of PVY CP^wt, which was PVY CP^S125A.
The proteins' binding affinity with target chemicals was evaluated using a Monolith NT.115 instrument (Nano Temper, Munich, Germany), utilizing established methods described in literature.[35]^,[48] A concentration of 2.0 mM was selected for the chemicals, and the proteins were tagged with the Monolith TM RED-NHS second-generation labeling kit. The MST assay analyzed the fluorescence intensity of the labeled proteins, focusing on a range from 400 to 1200 to investigate their interactions. The scanning method was conducted using an “LED power” setting of 40% and a temperature that was maintained at 25.0°C.

The subject of series [1] is PVY. The experiment in a line: Curative activity against PVY, half-leaf method on Chenopodium amaranticolor. It counts as in vivo. Conditions: Potato virus Y, in Chenopodium amaranticolor; 500 μg/mL; Chenopodium amaranticolor leaves; average of three replicates. The text has this:
(§1) According to previous reports,[46] PVY was infested in Nicotiana tabacum K326, and PVY was harvested and purified after showing severe infection symptoms on the leaves. The literature-guided protocol was followed to assess the curative, prophylactic, and […] potential of the target compounds under investigation.[15]
To assess the curative effectiveness against PVY, a uniform layer of 200–300 mesh emery was applied to the leaves of C. amaranticolor, followed by rubbing with a virus solution. For 1.5 h, then the emery was washed off with water. After the leaves naturally dried, a 500 μg/mL solution of the test compound was carefully applied to one side of the leaf, while the opposite side received a 1% Tween 80 solution as a control. The plants were subsequently incubated in a greenhouse maintained at 25°C. After 5−7 days, the presence of necrotic spots on the leaves was recorded, with each compound tested on three replicate plants. The average inhibition rate was determined by analyzing the data from these replications.

Series [2] relates to PVY. The experiment in a line: Protective activity against PVY, half-leaf method on Chenopodium amaranticolor. It counts as in vivo. To be noted: Potato virus Y, in Chenopodium amaranticolor; 500 μg/mL; Chenopodium amaranticolor leaves; average of three replicates. On the procedure:
as §1
A 500 μg/mL solution of the targeted compound was delicately applied to one side of C. amaranticolor leaves, while the other side was treated with a 1% Tween 80 aqueous solution. The plants were positioned in a greenhouse set at 25°C. Following a 24 h period, the entire leaf surface was inoculated with PVY by uniformly distributing 200–300 mesh emery. After 1.5 h, the emery was washed off with water, and the plants were returned to the greenhouse. After 5–7 days, the number of necrotic spots was tallied, with the assessment based on the greenhouse population. Each compound was tested in triplicate, and the average inhibition rate was subsequently calculated.

In series [3] the test system is PVY. Description: Inactivating activity against PVY, half-leaf method on Chenopodium amaranticolor. It counts as in vivo, potato virus Y. Conditions: Potato virus Y, in Chenopodium amaranticolor. The protocol:
as §1
Target compound solution (1,000 μg/mL) and 2 × virus solution were combined in equal quantities and incubated for 30 min. Evenly distribute emery onto the leaf blades, and apply the mixture of virus and compound solution onto the right side of C. amaranticolor leaf blades. Following this, an identical quantity of a 1× virus solution was applied to the untreated side of the leaf. Following a duration of 1.5 h, the emery residue present on the leaf surface was removed using a rinsing process utilizing water. The plants were incubated within a controlled greenhouse environment, maintaining a consistent temperature of 25°C. After 5−7 days, they proceeded to statistics the number of necrotic spots on the leaves. For each chemical, triplicate experiments were undertaken, and the average percentage of inhibition was subsequently determined.

In another series the target is T1, PVY CP^S125A (Potato virus Y, UniProt Q02963, S2919A).
T1 construct: 6xHis (N, cleaved yes); S-tag (N, cleaved yes); thioredoxin (Trx, from pET-32a); made in house; host or cells: E. coli BL21 (DE3)
T1 sequence (Q02963 2795-3061 S2919A): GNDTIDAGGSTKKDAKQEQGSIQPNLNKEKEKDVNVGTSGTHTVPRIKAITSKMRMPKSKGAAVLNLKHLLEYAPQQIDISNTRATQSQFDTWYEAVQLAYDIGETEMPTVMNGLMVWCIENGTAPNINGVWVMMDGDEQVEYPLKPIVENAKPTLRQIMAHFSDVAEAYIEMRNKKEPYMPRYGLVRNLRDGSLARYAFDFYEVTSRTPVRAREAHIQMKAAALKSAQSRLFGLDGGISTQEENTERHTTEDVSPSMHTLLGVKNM
The experiment in a line: MST assay for affinity with mutant PVY CP^S125A. Conditions: 25.0°C, read-out: Kd for binding to PVY CP^S125A.

The subject of another series is PVY-GFP. Description: Systemic infection of PVY-GFP in Nicotiana benthamiana (UV fluorescence, RT-qPCR). The series is classed as in vivo, potato virus Y. To be noted: 500 μg/mL spray, 7 dpai. The source says: To evaluate the effect of C50 on PVY infection, we infiltrated the Nicotiana benthamiana plants with Agrobacterium carrying the PVY infectious clone pCamPVY-GFP. […] The RT-qPCR results for GFP were consistent with that of PVY RNA (Figure 3D).
The Nicotiana benthamiana plants were subjected to infestation by Agrobacterium tumefaciens, which carried either pCamPVY-GFP or an empty vector (mock). […] At 7 dpai, the leaves of N. benthamiana were looked at for the GFP using a LUYOR UV light (Shanghai, China), and captured in photographs. The foliage was gathered, rapidly frozen with liquid nitrogen, and subsequently preserved in a refrigerator set at a temperature of −80°C.
Leaf blades of Nicotiana benthamiana were pulverized into fine powder with the aid of liquid nitrogen, followed by the extraction of total RNA from the leaf tissue utilizing Trizol reagent (Invitrogen, California, USA). Subsequently, cDNA synthesis was conducted through reverse transcription with primers and a reverse transcription kit (Vazyme, Nanjing, China). Any potential DNA contamination was effectively removed using a gDNA wipe enzyme (Vazyme, Nanjing, China) as per the manufacturer’s guidelines. RT-qPCR analysis was carried out employing TB Green (TaKaRa, Beijing, China). Detailed information regarding the primers utilized in this investigation can be found in Table S2.

Setting [4] is: Chenopodium amaranticolor leaves, read-out: EC50 for inactivating activity.
Setting [5] is: inactivating activity, Table S1, read-out: Experimental pEC50 (converted).

Read-outs that look alike come from different tables or passages of the source.

Regarding `Cc1ccc(S(=O)(=O)Nc2ccc(/N=C/c3ccc4c(c3O)C=CC(C)(C)O4)cc2)cc1` [Compound C50], the melting point was 127 to 129 °C. The molecule further registered a dissociation constant Kd on PVY CP^wt of 1.6 µM. In the series with PVY [1], this molecule yielded an inhibition at 500 µg/mL of 60 to 70%. Besides, the inhibition at 500 µg/mL with PVY [2] is 60 to 70%. Moreover, the EC50 in the series with PVY [3] (setting [4]) is 53.3 ± 4.3 µg/mL. In the series on PVY [3] (setting [5]), the EC50 was 119 µM. In addition, at PVY CP^S125A, the Kd was 125 µM. The “Green fluorescence under UV light” value with PVY-GFP (N. benthamiana, versus DMSO control) is “noteworthy decrease in green fluorescence”. Besides, in the series on PVY-GFP (systemic leaves of N. benthamiana, RT-qPCR), the “PVY RNA accumulation level (control normalized as 100%)” value is recorded as 18.9%.
In the case of `CC1(C)C=Cc2c(ccc(/C=N/c3ccc(NS(=O)(=O)c4ccc(Cl)cc4)cc3)c2O)O1` [Compound C6, (E)-4-chloro-N-(4-(((5-hydroxy-2,2-dimethyl-2H-chromen-6-yl)methylene)amino)phenyl) benzenesulfonamide], the melting point lay in the range of 139 to 141 °C. In addition, the Kd at PVY CP^wt came out at 4.4 µM. Moreover, the EC50 with PVY [3] (setting [4]) amounted to 56.7 ± 4.2 µg/mL. Further, the EC50 in the series on PVY [3] (setting [5]) was 121 µM. Besides, the Kd at PVY CP^S125A worked out at 312 ± 40.3 µM.

As usually defined, the Kd is the equilibrium constant for the complex coming apart. A word on the inhibition: it is the share of the control response that was lost under treatment. A higher inhibition goes with a strong effect. What is called melting point is the temperature of the solid-liquid transition.
